Results taken from patent US12466807B2, “Salt and crystal form of a FAK inhibitor” (Amplia Therapeutics Limited, priority 2019, dated 2025).

Test: Thermodynamic solubility studies
Format: physicochemical
Settings: for HPLC Conc: ca. 22° C.
Method: Thermodynamic Solubility Studies were carried out as follows: • Approximately 10 mg of Formula I free base Pattern 1 and L-tartrate Pattern 1, were weighed into a 1.5 mL screw-cap vial. The appropriate buffer system was added to create a slurry and the vials were shaken at ambient temperature (ca. 22° C.) for approximately 24 hours. • After this time, the slurries were transferred to centrifuge tubes containing nylon filters (0.22 μm) and filtered using a centrifuge for ca. 10 minutes. The isolated solids were then analyzed by XRPD and the filtrates measured by a pH meter and analyzed by HPLC for concentration.

Thermodynamic Solubility (Water): 0.9 mg/mL
Thermodynamic Solubility (pH 1.0): 0.3 mg/mL
HPLC Conc (pH 1.0, 24 h slurry): 0.3 mg/mL
XRPD Result (pH 1.0, solid after 24 h slurry, listed as L-Tartrate Pattern 1): Possible HCl salt
XRPD Result (pH 1.0, solid after 24 h slurry, listed as L-tartrate Pattern 1): possible HCl salt
pH Post-24 h Slurry (pH 1.0, listed as L-Tartrate Pattern 1): 1.87
Thermodynamic Solubility (pH 4.5): 0.3 mg/mL
HPLC Conc (pH 4.5, 24 h slurry, listed as L-Tartrate Pattern 1): 0.3 mg/mL
XRPD Result (pH 4.5, solid after 24 h slurry, listed as L-Tartrate Pattern 1): Pattern 2
pH Post-24 h Slurry (pH 4.5, listed as L-Tartrate Pattern 1): 3.99
Thermodynamic Solubility (pH 6.8): 0.2 mg/mL
HPLC Conc (pH 6.8, 24 h slurry): 0.2 mg/mL
HPLC Conc (pH 6.8, 24 h slurry, listed as L-Tartrate Pattern 1): 0.2 mg/mL
XRPD Result (pH 6.8, solid after 24 h slurry, listed as L-Tartrate Pattern 1): Pattern 2
pH Post-24 h Slurry (pH 6.8, listed as L-Tartrate Pattern 1): 4.43
HPLC Conc (water, 24 h slurry, listed as L-Tartrate Pattern 1): 0.9 mg/mL
XRPD Result (water, solid after 24 h slurry, listed as L-Tartrate Pattern 1): Pattern 2
pH Post-24 h Slurry (water, listed as L-Tartrate Pattern 1): 3.43
Structure (SMILES): COc1cc(C2CCN(C)CC2)ccc1Nc1ncc(C(F)(F)F)c(CCc2ccccc2CC(N)=O)n1 [L-Tartrate]
